From ChEMBL document CHEMBL1201862, “PubChem BioAssay data set” (2004)
The source made the active and inactive calls.

Tests used:
[1] = molecular target: T1, Lytic switch protein BZLF1 (Epstein-Barr virus (strain B95-8) (HHV-4) (Human herpesvirus 4), UniProt P03206); test: EBV ZTA inhibitors, dose response, counter-screen for EBNA-1 inhibitor project, biochemical, fluorescence polarization, Epstein-Barr virus, 1536-well (AID 2377); set-up: species or system human gammaherpesvirus 4;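 further: fluorescence polarization of Cy5-labelled ZRE DNA probe bound by purified Zta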
T1 sequence (P03206 whole entry): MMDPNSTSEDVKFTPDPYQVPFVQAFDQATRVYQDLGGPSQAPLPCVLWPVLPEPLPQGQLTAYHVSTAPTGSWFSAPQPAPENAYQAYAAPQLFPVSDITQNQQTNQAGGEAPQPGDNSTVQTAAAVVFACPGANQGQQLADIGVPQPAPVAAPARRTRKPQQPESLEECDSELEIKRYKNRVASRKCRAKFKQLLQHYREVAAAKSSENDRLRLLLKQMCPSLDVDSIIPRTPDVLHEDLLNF

[2] = molecular target: T2, Epstein-Barr nuclear antigen 1 (Epstein-Barr virus (strain B95-8) (HHV-4) (Human herpesvirus 4), UniProt P03211); test: EBNA-1 inhibitors, dose response, biochemical, fluorescence polarization, 1536-well (AID 2381); set-up: species or system human gammaherpesvirus 4;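 further: fluorescence polarization of a Cy5 DNA probe bound by EBNA-1 protein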
T2 sequence (P03211 whole entry): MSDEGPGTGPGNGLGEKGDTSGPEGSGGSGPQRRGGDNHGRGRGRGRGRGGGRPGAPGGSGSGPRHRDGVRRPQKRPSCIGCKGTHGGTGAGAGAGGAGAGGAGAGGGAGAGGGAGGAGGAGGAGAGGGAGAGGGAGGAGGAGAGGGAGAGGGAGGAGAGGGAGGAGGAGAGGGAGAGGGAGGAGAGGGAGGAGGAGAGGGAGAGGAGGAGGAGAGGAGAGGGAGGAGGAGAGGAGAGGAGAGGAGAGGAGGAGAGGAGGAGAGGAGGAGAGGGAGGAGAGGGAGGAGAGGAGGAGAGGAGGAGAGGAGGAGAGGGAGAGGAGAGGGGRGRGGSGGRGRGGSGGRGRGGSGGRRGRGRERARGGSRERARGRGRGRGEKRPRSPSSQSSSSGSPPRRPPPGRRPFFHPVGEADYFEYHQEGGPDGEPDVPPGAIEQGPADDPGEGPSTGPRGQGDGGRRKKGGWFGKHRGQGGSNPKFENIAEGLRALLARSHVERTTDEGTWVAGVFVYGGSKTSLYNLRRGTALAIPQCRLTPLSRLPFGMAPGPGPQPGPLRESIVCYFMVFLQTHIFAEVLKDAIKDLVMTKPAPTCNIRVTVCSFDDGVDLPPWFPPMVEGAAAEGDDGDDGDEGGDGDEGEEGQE

[3] = cytotoxicity toward NIH3T3 fibroblasts, dose response, counter-screen, cell-based, ATP luminescence, mouse fibroblasts (AID 2010); format: functional;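 further: cells exposed to compound for about 90 hours before reading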
[4] = inhibitors of intracellular T. cruzi replication, confirmation, NIH3T3 host cells, beta-gal luminescence (AID 2044); format: functional, cell-based;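 further: intracellular parasites grown in NIH/3T3 mouse fibroblasts as host cells; luminescent beta-galactosidase reporter signal from transgenic T. cruzi replicating inside host cells; inhibitors lower the luminescence signal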
[5] = molecular target: Induced myeloid leukemia cell differentiation protein Mcl-1 (Homo sapiens, UniProt Q07820); format: functional
Induced myeloid leukemia cell differentiation protein Mcl-1, sequence (Q07820 whole entry): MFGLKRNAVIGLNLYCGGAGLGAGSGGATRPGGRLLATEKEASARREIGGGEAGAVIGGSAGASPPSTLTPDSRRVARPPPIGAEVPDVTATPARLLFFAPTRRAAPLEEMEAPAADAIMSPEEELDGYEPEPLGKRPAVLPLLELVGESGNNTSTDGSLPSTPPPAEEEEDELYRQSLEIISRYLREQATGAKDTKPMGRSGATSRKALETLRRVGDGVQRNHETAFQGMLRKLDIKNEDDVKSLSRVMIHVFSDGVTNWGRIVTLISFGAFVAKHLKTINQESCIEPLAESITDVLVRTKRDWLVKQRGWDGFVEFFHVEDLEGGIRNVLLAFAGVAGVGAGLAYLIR

Estrogen receptor beta = Estrogen receptor beta (Homo sapiens, UniProt Q92731);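 further: recombinant ER-beta bound to coactivator SRC1 peptide in presence of estradiol agonist; inhibitors block coactivator peptide binding and lower the FRET signal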
Estrogen receptor beta, sequence (Q92731 whole entry): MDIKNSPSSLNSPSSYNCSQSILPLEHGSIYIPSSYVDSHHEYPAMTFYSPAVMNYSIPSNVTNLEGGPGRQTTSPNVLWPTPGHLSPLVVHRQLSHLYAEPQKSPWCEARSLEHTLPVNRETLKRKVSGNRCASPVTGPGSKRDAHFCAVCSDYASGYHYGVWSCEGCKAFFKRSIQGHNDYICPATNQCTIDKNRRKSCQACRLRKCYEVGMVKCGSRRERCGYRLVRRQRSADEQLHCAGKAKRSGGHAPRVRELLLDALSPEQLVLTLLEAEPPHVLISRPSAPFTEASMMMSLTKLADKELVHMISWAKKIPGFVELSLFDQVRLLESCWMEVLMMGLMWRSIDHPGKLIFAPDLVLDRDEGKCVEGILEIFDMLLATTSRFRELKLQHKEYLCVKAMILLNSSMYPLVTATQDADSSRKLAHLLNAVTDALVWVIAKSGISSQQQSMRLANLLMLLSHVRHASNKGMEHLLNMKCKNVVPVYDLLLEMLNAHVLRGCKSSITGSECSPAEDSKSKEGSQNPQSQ

[6] = molecular target: T3, Ubiquitin carboxyl-terminal hydrolase BAP1 (Homo sapiens, UniProt Q92560); test: BAP1 deubiquitinase inhibitors, dose response, biochemical (AID 714); format: functional
T3 sequence (Q92560 whole entry): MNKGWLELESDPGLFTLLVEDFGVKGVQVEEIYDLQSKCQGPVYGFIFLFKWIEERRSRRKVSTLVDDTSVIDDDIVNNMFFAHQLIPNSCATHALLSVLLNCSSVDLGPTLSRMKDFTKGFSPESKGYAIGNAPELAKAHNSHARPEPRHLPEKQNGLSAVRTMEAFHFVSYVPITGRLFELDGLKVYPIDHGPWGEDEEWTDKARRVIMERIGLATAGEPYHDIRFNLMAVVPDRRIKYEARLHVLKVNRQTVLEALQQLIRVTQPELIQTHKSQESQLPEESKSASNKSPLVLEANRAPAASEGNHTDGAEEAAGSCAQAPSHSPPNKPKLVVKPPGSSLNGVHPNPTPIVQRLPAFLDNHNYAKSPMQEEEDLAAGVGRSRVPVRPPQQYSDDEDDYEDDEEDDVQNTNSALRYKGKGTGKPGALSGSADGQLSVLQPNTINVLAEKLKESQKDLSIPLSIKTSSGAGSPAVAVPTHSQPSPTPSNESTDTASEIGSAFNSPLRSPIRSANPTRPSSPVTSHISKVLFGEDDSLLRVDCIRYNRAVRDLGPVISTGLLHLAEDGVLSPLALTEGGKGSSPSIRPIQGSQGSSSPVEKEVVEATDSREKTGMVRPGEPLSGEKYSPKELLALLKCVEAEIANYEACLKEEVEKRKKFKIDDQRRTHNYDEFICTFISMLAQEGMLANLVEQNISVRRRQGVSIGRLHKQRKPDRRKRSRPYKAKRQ

[7] = molecular target: Photoreceptor-specific nuclear receptor (Homo sapiens, UniProt Q9Y5X4); test: NR2E3 inverse agonists, dose response, biochemical, TR-FRET (AID 463256); format: functional
Photoreceptor-specific nuclear receptor, sequence (Q9Y5X4 whole entry): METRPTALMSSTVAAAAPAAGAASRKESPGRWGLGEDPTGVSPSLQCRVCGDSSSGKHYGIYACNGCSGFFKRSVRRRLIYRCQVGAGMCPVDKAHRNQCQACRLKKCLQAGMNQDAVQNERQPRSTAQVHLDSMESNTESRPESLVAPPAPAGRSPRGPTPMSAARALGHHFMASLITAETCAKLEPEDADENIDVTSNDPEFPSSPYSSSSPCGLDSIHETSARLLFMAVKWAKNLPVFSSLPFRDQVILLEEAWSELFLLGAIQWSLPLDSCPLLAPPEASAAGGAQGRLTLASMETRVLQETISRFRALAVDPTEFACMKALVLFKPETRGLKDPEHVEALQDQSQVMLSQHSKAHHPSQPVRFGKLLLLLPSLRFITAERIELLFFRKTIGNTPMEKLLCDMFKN

[8] = molecular target: Peroxisome proliferator-activated receptor gamma/Nuclear receptor corepressor 2 (Homo sapiens, UniProt P37231+Q9Y618); test: Counterscreen for NR2E3 inverse agonists: TR-FRET-based biochemical high throughput dose response assay to identify inverse agonists of the interaction between peroxisome proliferator-activated receptor gamma (PPARg) and nuclear receptor co-repressor 2 (NCOR2).; format: functional
Peroxisome proliferator-activated receptor gamma/Nuclear receptor corepressor 2, sequence (P37231 whole entry): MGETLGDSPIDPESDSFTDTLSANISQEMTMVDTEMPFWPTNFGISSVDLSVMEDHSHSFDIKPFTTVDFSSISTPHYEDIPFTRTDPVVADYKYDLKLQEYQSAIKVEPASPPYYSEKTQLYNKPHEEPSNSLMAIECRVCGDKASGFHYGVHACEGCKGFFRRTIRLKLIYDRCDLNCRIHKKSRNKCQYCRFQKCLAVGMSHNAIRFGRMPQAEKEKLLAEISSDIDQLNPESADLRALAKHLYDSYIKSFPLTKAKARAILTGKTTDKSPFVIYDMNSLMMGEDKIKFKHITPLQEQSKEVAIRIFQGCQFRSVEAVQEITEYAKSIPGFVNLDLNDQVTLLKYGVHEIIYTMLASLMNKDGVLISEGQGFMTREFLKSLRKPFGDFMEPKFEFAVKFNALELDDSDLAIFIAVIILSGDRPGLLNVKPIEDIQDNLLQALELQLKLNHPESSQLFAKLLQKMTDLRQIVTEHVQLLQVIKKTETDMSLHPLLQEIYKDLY
Peroxisome proliferator-activated receptor gamma/Nuclear receptor corepressor 2, sequence (Q9Y618 whole entry): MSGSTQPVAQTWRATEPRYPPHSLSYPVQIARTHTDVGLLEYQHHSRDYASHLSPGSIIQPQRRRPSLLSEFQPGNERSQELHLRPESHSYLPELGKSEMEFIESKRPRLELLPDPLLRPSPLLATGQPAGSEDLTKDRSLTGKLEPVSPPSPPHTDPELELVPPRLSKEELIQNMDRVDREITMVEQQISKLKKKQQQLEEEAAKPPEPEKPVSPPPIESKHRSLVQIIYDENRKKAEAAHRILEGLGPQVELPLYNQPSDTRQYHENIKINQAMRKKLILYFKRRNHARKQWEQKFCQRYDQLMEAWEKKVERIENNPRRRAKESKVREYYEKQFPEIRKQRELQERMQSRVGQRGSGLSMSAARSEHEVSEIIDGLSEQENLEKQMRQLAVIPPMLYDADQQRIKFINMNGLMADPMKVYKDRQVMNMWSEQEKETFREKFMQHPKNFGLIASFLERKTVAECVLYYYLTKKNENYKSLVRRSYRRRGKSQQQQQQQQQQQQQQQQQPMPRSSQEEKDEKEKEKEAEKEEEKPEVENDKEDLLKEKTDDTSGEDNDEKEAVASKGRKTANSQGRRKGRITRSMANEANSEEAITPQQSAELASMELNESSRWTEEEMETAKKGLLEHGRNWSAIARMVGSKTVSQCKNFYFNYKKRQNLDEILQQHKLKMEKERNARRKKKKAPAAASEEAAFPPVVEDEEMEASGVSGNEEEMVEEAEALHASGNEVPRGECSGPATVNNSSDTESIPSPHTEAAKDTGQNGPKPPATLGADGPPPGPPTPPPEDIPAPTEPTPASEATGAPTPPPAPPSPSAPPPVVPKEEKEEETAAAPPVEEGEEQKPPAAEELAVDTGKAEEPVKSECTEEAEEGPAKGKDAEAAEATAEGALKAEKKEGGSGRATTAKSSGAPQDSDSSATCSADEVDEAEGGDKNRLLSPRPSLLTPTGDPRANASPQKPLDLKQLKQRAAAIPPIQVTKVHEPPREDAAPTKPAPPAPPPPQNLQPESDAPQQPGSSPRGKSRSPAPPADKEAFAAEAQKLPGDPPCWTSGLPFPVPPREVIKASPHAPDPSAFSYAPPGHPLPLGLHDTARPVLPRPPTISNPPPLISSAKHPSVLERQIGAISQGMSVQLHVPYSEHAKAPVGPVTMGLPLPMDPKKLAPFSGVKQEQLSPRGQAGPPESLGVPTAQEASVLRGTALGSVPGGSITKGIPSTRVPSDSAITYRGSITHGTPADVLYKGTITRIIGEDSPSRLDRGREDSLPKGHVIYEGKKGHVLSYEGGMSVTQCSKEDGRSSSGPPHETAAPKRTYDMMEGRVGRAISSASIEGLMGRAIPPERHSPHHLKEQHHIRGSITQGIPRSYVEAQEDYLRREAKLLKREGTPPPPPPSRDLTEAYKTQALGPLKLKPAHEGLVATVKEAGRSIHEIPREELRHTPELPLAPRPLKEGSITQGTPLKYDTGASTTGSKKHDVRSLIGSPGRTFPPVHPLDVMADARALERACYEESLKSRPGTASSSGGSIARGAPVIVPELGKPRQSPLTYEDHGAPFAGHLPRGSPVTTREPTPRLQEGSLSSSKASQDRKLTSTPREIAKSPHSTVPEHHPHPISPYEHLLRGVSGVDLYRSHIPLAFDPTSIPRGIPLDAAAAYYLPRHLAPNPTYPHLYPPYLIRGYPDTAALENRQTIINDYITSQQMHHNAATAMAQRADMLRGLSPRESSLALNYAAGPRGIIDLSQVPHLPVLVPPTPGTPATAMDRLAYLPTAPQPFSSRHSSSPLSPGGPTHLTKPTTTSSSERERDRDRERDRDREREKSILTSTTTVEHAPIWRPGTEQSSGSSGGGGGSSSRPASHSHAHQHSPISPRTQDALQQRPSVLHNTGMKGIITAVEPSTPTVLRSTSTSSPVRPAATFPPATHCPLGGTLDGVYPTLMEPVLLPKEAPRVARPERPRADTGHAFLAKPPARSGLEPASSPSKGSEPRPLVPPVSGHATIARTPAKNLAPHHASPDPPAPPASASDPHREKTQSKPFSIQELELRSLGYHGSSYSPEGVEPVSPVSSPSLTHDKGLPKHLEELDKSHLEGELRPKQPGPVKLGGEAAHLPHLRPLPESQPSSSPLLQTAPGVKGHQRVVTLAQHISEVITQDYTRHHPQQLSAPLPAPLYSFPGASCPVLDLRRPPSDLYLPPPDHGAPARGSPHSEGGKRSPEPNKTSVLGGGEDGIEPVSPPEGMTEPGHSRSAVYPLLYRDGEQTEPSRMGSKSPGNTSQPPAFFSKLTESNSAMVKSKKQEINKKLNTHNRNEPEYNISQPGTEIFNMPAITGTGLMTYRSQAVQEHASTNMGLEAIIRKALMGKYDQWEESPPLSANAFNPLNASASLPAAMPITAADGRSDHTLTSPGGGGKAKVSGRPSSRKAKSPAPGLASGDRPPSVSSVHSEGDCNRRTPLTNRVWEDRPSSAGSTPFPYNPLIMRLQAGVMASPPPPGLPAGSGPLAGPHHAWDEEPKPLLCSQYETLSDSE

[9] = A cytotoxicity screen of small molecule inhibitors of the PhoP region in Salmonella typhi identified in the primary screen. [Related pubchem assays: 1850, 1864, 1985 ]; format: functional
[10] = molecular target: Sphingosine 1-phosphate receptor 1 (Homo sapiens, UniProt P21453); format: functional;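 further: Tango beta-arrestin reporter U2OS cells stimulated with S1P near its EC80; inhibitor potency meaning antagonism of receptor activation by the natural agonist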
[11] = MC4R antagonists, dose response, counter-screen for LGR2 antagonist project, cell-based, plate reader, cherry pick (AID 743444); format: functional;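 further: transfected HEK 293 cells stimulated with alpha-MSH peptide; potency of inhibitors of the alpha-MSH evoked signal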
[12] = molecular target: T4, Sphingosine 1-phosphate receptor 4 (Homo sapiens, UniProt O95977); test: Fluorescence dose response cell-based high throughput screening assay for antagonists of the Sphingosine 1-Phosphate Receptor 4 (S1P4). [Related pubchem assays: 1524 (Confirmation in triplicates.), 1510 (Primary screen.)]; format: functional
T4 sequence (O95977 whole entry): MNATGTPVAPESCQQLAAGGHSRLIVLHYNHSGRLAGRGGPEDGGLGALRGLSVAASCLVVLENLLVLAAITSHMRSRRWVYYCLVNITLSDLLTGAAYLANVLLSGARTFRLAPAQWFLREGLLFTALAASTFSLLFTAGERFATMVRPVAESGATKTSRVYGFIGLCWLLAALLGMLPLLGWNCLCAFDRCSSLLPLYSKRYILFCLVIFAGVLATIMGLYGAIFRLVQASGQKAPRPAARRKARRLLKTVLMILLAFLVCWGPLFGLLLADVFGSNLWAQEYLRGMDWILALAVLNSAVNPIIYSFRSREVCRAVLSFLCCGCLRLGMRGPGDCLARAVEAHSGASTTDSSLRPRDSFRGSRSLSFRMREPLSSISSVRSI

[13] = HEK293 cell cytotoxicity, dose response, cytotoxicity control, plate reader, cherry-picked samples (AID 743446); format: functional, cell-based
[14] = LGR2 antagonists, dose response, cell-based, HEK293, CRE-luciferase reporter, cherry pick, set 2 (AID 743343); format: functional;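 further: transfected cells were stimulated with diluted bursicon conditioned medium after compound addition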
[15] = insulin promoter down-regulators in MIN6 cells, imaging, high-content screening, mouse beta cells (AID 1628); format: functional
[16] = A549 cell cytotoxicity, dose response, cytotoxicity control, plate reader, cherry-pick, antagonist series (AID 743412); format: functional, cell-based
[17] = HepG2 cell cytotoxicity, dose response, cytotoxicity control, plate reader, cherry-pick, antagonist series (AID 743416); format: functional, cell-based
[18] = cytotoxicity in MIN6 insulinoma cells, dose response, cytotoxicity control, cell-based, mouse insulinoma (AID 2122); format: functional;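 further: confirmatory high-throughput counterscreen run to flag cytotoxic compounds; mouse MIN-6 beta cells carrying an insulin promoter eGFP reporter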
Paired box protein Pax-8 = Paired box protein Pax-8 (Homo sapiens, UniProt Q06710); test: inhibitors of PAX8-driven TPO luciferase reporter, dose response, RMG-I cells, cherry-pick (AID 687027); format: functional, cell-based;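 further: luciferase reporter driven by Pax8 target thyroperoxidase promoter measured by SteadyGlo luminescence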
[19] = Shn3 3'UTR reporter inhibitors, dose response, cell-based, Clone20 osteoblasts, firefly luciferase, cherry-picked (AID 624132); format: functional;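 further: firefly luciferase luminescence from reporter carrying the Shn3 3'UTR in osteoblasts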
[20] = HepG2 cell cytotoxicity, dose response, cytotoxicity control for Shn3 inhibitor project, CellTiter-Glo, cherry-picked (AID 624134); format: functional, cell-based
[21] = control 3'UTR Renilla luciferase suppression, dose response, counter-screen for Shn3 inhibitor project, cell-based, Clone20-Shn3RL, cherry-picked (AID 624133); format: functional
[22] = growth suppression of PTEN-null colon cells, dose response, cell-based, HCT116 PTEN knockout (AID 1047); format: functional;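 further: HCT116 colon tumor cells with PTEN knocked out; cells exposed to compound for 60 hours before readout; potency for loss of cell viability measured by luminescence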
[23] = growth suppression of beta-catenin-knockout colon cells, dose response, cell-based, HCT116, human colon tumor (AID 1045); format: functional;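 further: HCT116 colon tumor cells with beta catenin knocked out; cells exposed to compound for 60 hours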
[24] = molecular target: Luciferin 4-monooxygenase (Photinus pyralis, UniProt P08659); test: firefly luciferase enzyme inhibitors, dose response, biochemical, luminescence (AID 1891)
Luciferin 4-monooxygenase, sequence (P08659 whole entry): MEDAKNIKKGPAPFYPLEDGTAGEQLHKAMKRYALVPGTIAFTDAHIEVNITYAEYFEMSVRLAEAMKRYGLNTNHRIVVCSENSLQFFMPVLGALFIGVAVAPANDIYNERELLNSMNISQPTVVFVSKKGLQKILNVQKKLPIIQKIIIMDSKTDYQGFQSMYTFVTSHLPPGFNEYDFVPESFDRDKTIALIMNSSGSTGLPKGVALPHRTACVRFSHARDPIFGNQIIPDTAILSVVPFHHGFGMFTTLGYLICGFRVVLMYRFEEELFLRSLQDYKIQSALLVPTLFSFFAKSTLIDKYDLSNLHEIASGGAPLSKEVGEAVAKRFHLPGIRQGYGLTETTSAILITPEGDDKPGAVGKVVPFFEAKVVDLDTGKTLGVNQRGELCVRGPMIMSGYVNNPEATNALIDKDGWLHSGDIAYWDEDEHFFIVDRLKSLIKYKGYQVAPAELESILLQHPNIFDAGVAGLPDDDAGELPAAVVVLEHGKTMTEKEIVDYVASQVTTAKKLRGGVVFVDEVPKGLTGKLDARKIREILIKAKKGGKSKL

[25] = Luminescence Cell-Based Dose Confirmation HTS to Identify Inhibitors of Platelet Dense Granule Release. [Related pubchem assays: 1663 (Primary HTS), 1678 (Summary of Project)]; format: functional
Cytochrome P450 2C9 = Cytochrome P450 2C9 (Homo sapiens, UniProt P11712)

For `COc1ccc(N2CC(=O)C(c3nc4ccccc4s3)=C2N)cc1`, the IC50 [1] was > 111 µM (not active) and the IC50 [2] was 11.2 µM (not active).

With `Cc1ccsc1C(=O)C1CCCN(Cc2cnc(N3CCCC3)s2)C1` (centres undefined) the EC50 (cells) was 0.137 µM (active), the EC50 [3] was > 60 µM (not active) and the EC50 [4] was < 0.1 µM (active).

For `CCN(c1ccc(NC(=O)COC(=O)c2ccc(C)c(S(=O)(=O)N3CCOCC3)c2)cc1)C(C)C`, the IC50 [5] was 1.67 µM (not active).

With `Cc1ccc(CCNS(=O)(=O)c2c[nH]cn2)cc1` the IC50 (Estrogen receptor beta) was > 50 µM (not active).

For `CCCCN(CC)CCCNC(=O)C1CCN(c2ncnc3c2sc2cccc(F)c23)CC1`, the EC50 (cells) was 0.294 µM (active), the EC50 [3] was > 30 µM (not active) and the EC50 [4] was < 0.1 µM (active).

With `COCCOC(=O)c1c(NC(=O)COC(=O)Cc2cccc(OC)c2)sc(C(N)=O)c1C` the IC50 [1] was > 111 µM (not active) and the IC50 [2] was > 5.47 µM (active).

In the case of `COc1ccc(CNS(=O)(=O)c2ccc(S(=O)(=O)N3CCCCC3)cc2)cc1`, the IC50 [6] is reported as > 50 µM (not active).

With `O=C(CSc1ccc(-c2cccs2)nn1)N1CCCCC1` the IC50 [7] was 2.64 µM (active) and the IC50 [8] was 8.03 µM (active).

In the case of `O=C(CSC1=NCCS1)Nc1nc2c(s1)CCCC2`, the EC50 [9] is reported as > 50 µM (active).

In the case of `COc1ccc(C(=O)Nc2ccc(NC(=O)c3cccs3)cn2)cc1`, the IC50 [7] is reported as 7.18 µM (active) and the IC50 [8] is reported as 7.65 µM (active).

With `CCN1C(=O)N/C(=C/c2cc(C)n(Cc3ccccc3)c2C)C1=O` the EC50 [9] was > 50 µM (active).

In the case of `COc1ccc(-n2ncc(Cl)c(Cl)c2=O)cc1`, the IC50 [10] is reported as 21.6 µM (not active), the AC50 [11] is reported as 26.5 µM (active) and the IC50 [12] is reported as 2.09 µM (active). The AC50 [13] was 7.88 µM (active), the AC50 [14] was 20.2 µM (active) and the EC50 [3] was 2.03 µM (active). For the same molecule, the IC50 [15] was 1.56 µM (active), the AC50 [16] was 10.8 µM (active) and the AC50 [17] was 8.23 µM (active). For the same molecule, the IC50 [18] was 1.11 µM (active), the AC50 (Paired box protein Pax-8) was 5.62 µM (active) and the AC50 [19] was 3.36 µM (active). For the same molecule, the AC50 [20] was 32.9 µM (active), the EC50 [4] was 1.59 µM (active) and the AC50 [21] was 8.07 µM (active).

For `CC(=O)N(Cc1cccnc1)c1cccc(-c2nc3ccccc3s2)c1`, the EC50 (cells) was 0.078 µM (active), the EC50 [3] was > 60 µM (not active) and the EC50 [4] was < 0.1 µM (active).

With `O=C(Nc1ccc2ccccc2c1)Nc1ccc2snnc2c1` the EC50 [22] was 14.9 µM (active), the EC50 [3] was > 60 µM (not active) and the IC50 [1] was > 111 µM (not active). The EC50 [23] was 15.9 µM (active), the IC50 [2] was 10.1 µM (not active) and the EC50 [4] was 1.94 µM (active).

With `O=C(Nc1nnc(C2CCCO2)s1)c1ccc(Br)cc1` (centres undefined) the IC50 (Estrogen receptor beta) was > 50 µM (not active).

For `C(=C\c1ccco1)/c1ccc2ccccc2n1`, the EC50 [24] was 4.25 µM (active), the EC50 [25] was 15.2 µM (active) and the IC50 [5] was 9.47 µM (active).

For `COc1ccc(-c2nn3c(-c4ccc(F)cc4)nnc3s2)cc1`, the IC50 [7] was > 39.8 µM (not active) and the IC50 [8] was > 39.8 µM (not active).

For `COc1ccccc1NC(=O)C(=O)N/N=C/c1ccc([N+](=O)[O-])s1`, the IC50 [5] was 2.56 µM (active), the EC50 [3] was > 60 µM (not active) and the EC50 [4] was 0.858 µM (active).

With `COc1cccc(/C=N/NC(=O)CO/N=C(\C)c2cccs2)c1OC` the AC50 (Cytochrome P450 2C9) was 39.8 µM (inconclusive) and the EC50 [9] was > 50 µM (active).
